Laboratory results published in patent publication US8557776B2, “Compounds and methods for 18F labeled agents” (Bayer Pharma AG, priority 2006, dated 2013).
*1 amine or outer side, *2 acyl side, *3 side chain or, on linkers, in order; H or OH if unused. Where a SMILES comes first, the peptide text is derived from it. [ ]: non-standard residue; d: D form. The star is where a group is joined. γ4hIle = CC[C@H](C)[C@@H](CCC(=O)[*:2])N[*:1]; Benzoyl(3-CN,4-F) = N#Cc1cc(C(=O)*)ccc1F; Ava = NCCCCC(=O)O

Key:
[1] = test system: human prostate cancer PC-3; experiment: Biodistribution of F-18-Bombesin Analog in nude mice bearing human prostate cancer PC-3; type: in vivo
Description: Nude mice bearing human prostate cancer PC-3 were injected with 100 μl radioactive peptide dissolved in PBS containing 135 kBq per animal. For blocking 100 μg unlabeled gastrin-releasing peptide was co-injected. One hour post injection the animals were sacrificed and organs dissected for counting in a gamma-counter. Values are expressed as percent of the injected dose per gram organ weight.

Compound	Panc. % (Table 1)	Tumor/Tissue-Ratios T/Blood ([1]; 1 h Blocking: 100 μg unlabeled gastrin-releasing peptide co-injected)	Tumor/Tissue-Ratios T/Blood ([1]; 1 h post injection)	tumor-tissue ratio relative to that of 18F-choline (FCH) and 18F-FB-Lys-BN ([1]; FIG. 8, protocol as above)	accumulation in tumor (in words) ([1]; PC-3 tumor, 1 h post injection)	specificity of targeting (in words) ([1]; blocking values low in tumor on co-injection of gastrin-releasing peptide)
3-CF3,4-F-Benzoyl-Arg-Ava-Gln-Trp-Ala-Val-NMeGly-His-Sta-Leu-NH2 (SEQ ID NO: 421) (RXQWAVGHXL; 3-CF3,4-F-benzoyl N-cap, Ava, NMeGly, Sta, C-amide)	1,42%					
CC[C@H](C)[C@@H](CCC(=O)N[C@@H](CC(C)C)C(N)=O)NC(=O)[C@H](Cc1c[nH]cn1)NC(=O)CNC(=O)[C@@H](NC(=O)[C@H](C)NC(=O)[C@H](Cc1c[nH]c2ccccc12)NC(=O)[C@H](CCC(N)=O)NC(=O)CCCCNC(=O)c1ccc(F)c(C#N)c1)C(C)C [F-18-Bombesin Analog] ({Benzoyl(3-CN,4-F)-Ava}-QWAVGH[γ4hIle]L-NH2; N-terminus assumed)		1.57 ± 0.22	21.03 ± 11.92	2.5 time higher	accumulates in tumor	specific
